# Data as given in patent US20170313974A1, “Modulation of Tissue Fatty Acid Composition of a Host by Human Gut Bacteria” (University College Cork, National University of Ireland, priority 2007, published 2017).
# Marks after values point to notes of the source that are not given here.
# Legend:
# BALB/c mice = experiment: Tissue fatty acid composition, BALB/c α-linolenic acid feeding trial (8 weeks); assay type: in vivo
# Procedure: Female BALB/c mice were purchased from Harlan ltd. (Briester, Oxon, UK) at 8 weeks of age and fed a normal diet for 1 week to stabilize all metabolic conditions. […] Mice were maintained at 4 per cage and exposed to a 12-h light:dark cycle at a constant temperature of 25° C. The mice were held at the Biological Services Unit in University College Cork. The animal experimentation was performed according to the guidelines for the care and use of laboratory animals approved by the Department of Health and Children.
# (§1) Animals were fed standard mouse chow ad libitum with free access to water at all times. […] Following 8 weeks on experimental diets, the animals were sacrificed by cervical dislocation. Liver, adipose tissue and brain were removed from the carcasses, blotted dry on filter paper, weighed and frozen in liquid nitrogen. All samples were stored at −80° C. until processed.
# Lipids were extracted according to the method by O'Fallon et al. (20). Briefly, samples were cut into 1.5-mm rectangular strips and placed into a screw-cap Pyrex culture tube together with 0.7 ml of 10 N KOH in water and 5.3 ml of MeOH. The tubes were incubated in a 55° C. water bath for 1.5 h with vigorous hand-shaking every 20 min. After cooling below room temperature, 0.58 ml of 24 N H2SO4 in water was added. The tubes were mixed by inversion and with precipitated K2SO4 present incubated again in 55° C. for 1.5 h with hand-shaking every 20 min. FAME were recovered by addition of 3 ml hexane and vortex mixed and separated by GLC (Varian 3400, Varian, Walnut Creek, Calif. USA fitted with a flame ionization detector) using a Chrompack CP Sil 88 column (Chrompack, Middleton, The Netherlands, 100 m×0.25 mm i.d., 0.20 μm film thickness) and He as carrier gas. The column oven was initially programmed at 80° C. for 8 min, and increased 8.5° C./min to a final column temperature of 200° C. The injection volume was 0.6 μl, with automatic sample injection on a SPI 1093 splitless on-column temperature programmable injector. Data were recorded and analysed on a Minichrom PC system (VG Data System, Manchester, U.K.). Peaks were identified with reference to retention times of fatty acids in a standard mixture. All fatty acid results are shown as mean±standard error mean (SEM) g/100 g FAME.
# [1] = Body weight gain, BALB/c α-linolenic acid trial; assay type: in vivo, BALB/c mice; settings: 8 week trial period
# Procedure: as §1
# [2] = adipose tissue, 8 weeks, SEM, n = 8
structure (smiles),measurement,setting,value
"CC/C=C\C/C=C\C/C=C\CCCCCCCC(=O)O [B, α-linolenic acid]","C16:0 palmitic acid, adipose tissue",BALB/c mice; [2],28.73 ± 2.16^c g/100 g FAME
same,"C16:1c9 palmitoleic acid, adipose tissue",BALB/c mice; [2],6.07 ± 2.01 g/100 g FAME
same,"C18:0 stearic acid, adipose tissue",BALB/c mice; [2],8.00 ± 2.33 g/100 g FAME
same,"C18:1c9 oleic acid, adipose tissue",BALB/c mice; [2],14.83 ± 3.01 g/100 g FAME
same,"C18:2n-6 linoleic acid, adipose tissue",BALB/c mice; [2],18.80 ± 0.81^c g/100 g FAME
same,"C18:3n-3 linolenic acid, adipose tissue",BALB/c mice; [2],"7.35 ± 2.15^c,d g/100 g FAME"
same,"C18:3n-6 γ-linolenic acid, adipose tissue",BALB/c mice; [2],0.13 ± 0.03 g/100 g FAME
same,"C18:4n-3 stearidonic acid, adipose tissue",BALB/c mice; [2],0.12 ± 0.03 g/100 g FAME
same,"C20:3n-6 dihomo-γ-linolenic acid, adipose tissue",BALB/c mice; [2],0.30 ± 0.09 g/100 g FAME
same,"C20:4n-6 arachidonic acid, adipose tissue",BALB/c mice; [2],"5.27 ± 2.04^c,d g/100 g FAME"
same,"C20:5n-3 eicosapentaenoic acid, adipose tissue",BALB/c mice; [2],"2.37 ± 0.76^c,d g/100 g FAME"
same,"C22:5n-3 docosapentaenoic acid, adipose tissue",BALB/c mice; [2],"0.55 ± 0.14^c,d g/100 g FAME"
same,"C22:6n-3 docosahexaenoic acid, adipose tissue",BALB/c mice; [2],1.17 ± 0.36 g/100 g FAME
same,"n-6/n-3, adipose tissue",BALB/c mice; [2],"2.15 ± 0.15^c,d"
same,"C16:0, brain","BALB/c mice; brain, 8 weeks, SEM, n = 8",32.38 ± 0.44^c g/100 g FAME
same,"C16:1c9, brain","BALB/c mice; brain, 8 weeks, SEM, n = 8","0.94 ± 0.03^a,c,d g/100 g FAME"
same,"C18:0, brain","BALB/c mice; brain, 8 weeks, SEM, n = 8",19.87 ± 0.14^a g/100 g FAME
same,"C18:1c9, brain","BALB/c mice; brain, 8 weeks, SEM, n = 8",17.61 ± 0.24^ g/100 g FAME
same,"C18:2n-6, brain","BALB/c mice; brain, 8 weeks, SEM, n = 8","1.54 ± 0.10^a,c,d g/100 g FAME"
same,"C20:4n-6, brain","BALB/c mice; brain, 8 weeks, SEM, n = 8","6.88 ± 0.12^c,d g/100 g FAME"
same,"C20:5n-3, brain","BALB/c mice; brain, 8 weeks, SEM, n = 8","0.15 ± 0.01^c,d g/100 g FAME"
same,"C22:5n-3, brain","BALB/c mice; brain, 8 weeks, SEM, n = 8",0.24 ± 0.01^c g/100 g FAME
same,"C22:6n-3, brain","BALB/c mice; brain, 8 weeks, SEM, n = 8",8.87 ± 0.30^a g/100 g FAME
same,"n-6/n-3, brain","BALB/c mice; brain, 8 weeks, SEM, n = 8",0.89 ± 0.03^a
same,"C18:3n-3, brain","BALB/c mice; brain, 8 weeks, SEM, n = 8, ND = not detected","0.18 ± 0.02^a,c,d g/100 g FAME"
same,higher concentrations of α-linolenic acid and EPA in liver and adipose tissue,"BALB/c mice; compared with group C and group D, p<0.001",10 fold
same,"arachidonic acid/EPA ratio in adipose tissue, fold lower",BALB/c mice; compared with group D,~20 fold
same,"arachidonic acid/EPA ratio in liver, fold lower",BALB/c mice; compared with group D,approximately 30 fold
same,"C16:0 palmitic acid, liver","BALB/c mice; liver, 8 weeks, SEM, n = 8","23.89 ± 0.71^c,d g/100 g FAME"
same,"C16:1c9 palmitoleic acid, liver","BALB/c mice; liver, 8 weeks, SEM, n = 8","2.07 ± 0.18^a,d g/100 g FAME"
same,"C18:0 stearic acid, liver","BALB/c mice; liver, 8 weeks, SEM, n = 8","12.36 ± 0.44^a,d g/100 g FAME"
same,"C18:1c9 oleic acid, liver","BALB/c mice; liver, 8 weeks, SEM, n = 8","10.16 ± 0.62^c,d g/100 g FAME"
same,"C18:2n-6 linoleic acid, liver","BALB/c mice; liver, 8 weeks, SEM, n = 8",18.32 ± 0.21^d g/100 g FAME
same,"C18:3n-3 linolenic acid, liver","BALB/c mice; liver, 8 weeks, SEM, n = 8","9.47 ± 0.64^c,d g/100 g FAME"
same,"C18:3n-6 γ-linolenic acid, liver","BALB/c mice; liver, 8 weeks, SEM, n = 8","0.17 ± 0.01^c,d g/100 g FAME"
same,"C18:4n-3 stearidonic acid, liver","BALB/c mice; liver, 8 weeks, SEM, n = 8","0.16 ± 0.01^c,d g/100 g FAME"
same,"C20:3n-6 dihomo-γ-linolenic acid, liver","BALB/c mice; liver, 8 weeks, SEM, n = 8",0.61 ± 0.02^a g/100 g FAME
same,"C20:4n-6 arachidonic acid, liver","BALB/c mice; liver, 8 weeks, SEM, n = 8","5.57 ± 0.14^a,c,d g/100 g FAME"
same,"C20:5n-3 eicosapentaenoic acid, liver","BALB/c mice; liver, 8 weeks, SEM, n = 8","3.07 ± 0.12^a,c,d g/100 g FAME"
same,"C22:5n-3 docosapentaenoic acid, liver","BALB/c mice; liver, 8 weeks, SEM, n = 8","0.94 ± 0.05^c,d g/100 g FAME"
same,"C22:6n-3 docosahexaenoic acid, liver","BALB/c mice; liver, 8 weeks, SEM, n = 8",5.66 ± 0.28^d g/100 g FAME
same,"n-6/n-3, liver","BALB/c mice; liver, 8 weeks, SEM, n = 8","1.30 ± 0.07^c,d"
same,body weight gain,[1],did not significantly influence
